Assay results from patent US20240207265A1, “TREATMENT OF CNS DISEASES WITH sGC STIMULATORS” (Tisento Therapeutics Inc., priority 2021, published 2024).

Columns and labels:
[1] = test system: sGC; experiment: cGMP neuronal cell-based assay (rat primary neurons); conditions: rat primary hippocampal neurons, DETA-NO 10 μM or 30 μM, cGMP by LC-MS/MS; read-out: sGC Neuron EC50
Method: Rat primary neurons were isolated from fetuses of 18-day pregnant Sprague-Dawley females. The fetuses were collected in Hanks' balanced salt solution (HBSS) and brains were rapidly removed. The cerebral hippocampi were isolated and mechanically fragmented. Further tissue digestion was performed with 0.25% (wt/vol) trypsin solution in HBSS without Ca2+ and Mg2+ for 15 min at 37° C. After trypsination, cells were washed and resuspended in neurobasal medium supplemented with 0.5 mM L-glutamine, 12.5 uM glutamic acid, 2% B-27 and 100 U/mL penicillin, and 100 μg/mL streptomycin. Cells were plated at a density of 26×10^3 or 3×10^4 or 4×10^4 cells/well in a poly-D-lysine coated 384-well flat clear-bottom plate (Corning Cat No 354662). Cells were incubated 6-7 days at 37° C. in a humidified chamber with 5% CO2. Media was removed and cells were washed 1× with HBSS containing Ca2+ and Mg2+, and replaced with 40 uL HBSS containing 0.5 mM IBMX, and incubated for 15 minutes at 37° C. 10 uL of a 5× stock of test compounds with diethylenetriamine NONOate (DETA-NO) was added. Final concentration of DETA-NO was either 10 μM or 30 μM. Cells were incubated for 20 min at 37° C. Medium was removed, 50 uL of ice-cold 10% acetic acid was added, and incubated for 60 minutes at 4° C. Following centrifugation at 4° C. for 5 minutes at 1000×g to pellet cell debris, the supernatant was aspirated to a clean plate and the samples were analyzed for cGMP content. cGMP concentrations were determined from each sample using LC-MS/MS.
Concentration response data were analyzed using a 4-parameter fit (log (agonist) vs. response-variable slope). The EC50 was interpolated from the curve fit and is defined as the concentration at which the compound elicits 50% of its maximal response. When the experiment was carried out multiple times for a given compound, the geometrical mean of all experiments is reported.

[2] = test system: normotensive rats; experiment: Blood pressure effects in normotensive rats after acute oral dose; assay type: in vivo, rat; conditions: for Peak ΔVMAP (mm Hg): sodium salt in Milli-Q water, vehicle-adjusted MAP; for Time at Peak: time of peak ΔVMAP
Description: Male, normotensive Sprague Dawley rats were purchased from Charles River Laboratories. These rats have indwelling femoral artery catheters installed. Animals were harnessed to a tether system and attached to pressure transducers to monitor cardiovascular (CV) parameters, specifically mean arterial pressure (MAP) and heart rate (HR). Animals were acclimated to the system overnight and baseline CV parameters collected. […] A blood sample was collected from each animal through the catheter line at pre-dose and 2 hours post-dose for compound concentration quantification. Hemodynamic measures were recorded for ten hours post-dose. Fifty-four male rats were used for these studies and they were ordered to be received at a body weight range of 250-275 grams. They were single housed under controlled conditions of temperature (21±1° C.), relative humidity (36±1%) and placed in a 12-hr light-dark cycle (lights on at 6:00 AM and off at 6:00 PM) room at SmartLabs vivarium (21 Erie Street, Cambridge, MA) under protocol MIL-110. Animals were allowed ad libitum access to chow (LabDiet Prolab Isopro RMH 3000, St. Louis, MO) and water. Two sets of studies were carried out. […] […] Formulations prepared were thawed less than 4 hours before dosing and stored at room temperature or were made less than 2 hours before dosing and stored at room temperature.
This study utilized ADInstruments LabChart (v8) to collect hemodynamic data from conscious, freely moving rats tethered to a blood pressure transducer (Harvard Apparatus cat #APT300). Following an overnight acclimation to the tether and pressure transducer, animals were dosed following a 1-hr baseline recording period. Animals were administered a single oral (P.O.) dose of the sodium salt form of Compound I-14 or vehicle at a dose volume of 10 mL/kg. Data collection was continued for 10 hours post-dose.
ADInstruments LabChart (v8) was used to monitor and export hemodynamic data. Blood pressure and heart rate were continuously monitored, and data were collected at 1000 data points per second then averaged into 10-minute bins for analysis. Change from baseline MAP (ΔBMAP) and HR (ΔBHR) were calculated using the pre-dose baseline averaged over the 1-hr period prior to dosing using Microsoft Excel for Microsoft 365. This 10-minute bin dataset was used to determine peak ΔVMAP, time peak ΔVMAP, peak ΔVHR and time of peak ΔVHR. The dataset was further consolidated into 1-hr bins for the MAP and HR figures and the analysis of ΔBMAP, ΔBMAP, and ΔBHR. The definitions of these terms/abbreviations are summarized below:
Statistical analyses were performed in Graphpad Prism (v8). Significance, as compared to vehicle-treated rats, for ΔBMAP and ΔBHR data was determined by 2-way repeated measures ANOVA followed by a Dunnett's multiple comparisons test, if there was a missing data point, a mixed-effect analysis was utilized. Vehicle-adjusted MAP (ΔVMAP) was calculated by subtracting ΔBMAP of the vehicle group from the ΔBMAP of each dose group at each timepoint. Vehicle-adjusted HR (ΔVHR) was calculated in a similar manner to ΔVMAP.
Analogous studies to the ones described above were carried out with Compound I-20. […] A blood sample was collected from each animal through the catheter line at pre-dose and 2 hours post-dose for compound concentration quantification. Hemodynamic measures were recorded for ten hours post-dose.

Cc1cc(F)c(Cc2nc(-c3ncc(F)c(O)n3)cn3ncnc23)cc1F [Compound I-19, 5-Fluoro-2-(8-(2,5-difluoro-4-methylbenzyl)-[1,2,4]triazolo[1,5-a]pyrazin-6-yl)pyrimidin-4-ol]
EC50 [1]: ≤ 100 nM

Cc1cc(F)c(Cc2nc(-c3ncc(F)c(O)n3)cn3ccnc23)cc1F [Compound I-14, 5-fluoro-2-(8-(2,5-difluoro-4-methylbenzyl)imidazo[1,2-a]pyrazin-6-yl)pyrimidin-4-ol]
EC50 [1]: ≤ 100 nM
Peak ΔVMAP (mm Hg) ([2]; 1 mg/kg single oral dose): −6.2 mm Hg
Time at Peak ([2]; 1 mg/kg single oral dose): 90 min
Peak ΔVMAP (mm Hg) ([2]; 3 mg/kg single oral dose): −10.1 mm Hg
Time at Peak ([2]; 3 mg/kg single oral dose): 70 min
Peak ΔVMAP (mm Hg) ([2]; 10 mg/kg single oral dose): −22.3 mm Hg
Time at Peak ([2]; 10 mg/kg single oral dose): 30 min
Peak ΔVMAP (mm Hg) ([2]; 30 mg/kg single oral dose): −24.4 mm Hg
Time at Peak ([2]; 30 mg/kg single oral dose): 30 min
effect on MAP from baseline and as adjusted from vehicle ([2]; single oral dose 3, 10, and 30 mg/kg): lowered MAP from baseline and as adjusted from vehicle
no effect dose on ΔBMAP ([2]; single oral dose, main effect analysis, simple effects analysis and AOC): 1 mg/kg

Oc1nc(-c2cn3ncnc3c(Cc3ccccc3F)n2)ncc1F [Compound I-23]
EC50 [1]: ≤ 100 nM

Oc1nc(-c2cn3ccnc3c(Cc3ccccc3F)n2)ncc1F [Compound I-21]
EC50 [1]: ≤ 100 nM

Oc1nc(-c2cn3c(F)cnc3c(Cc3cc(F)ccc3F)n2)ncc1F [Compound I-5]
EC50 [1]: ≤ 100 nM

Oc1nc(-c2cn3ccnc3c(Cc3cc(F)ccc3F)n2)ncc1Cl [Compound I-16, 5-chloro-2-(8-(2,5-difluorobenzyl)imidazo[1,2-a]pyrazin-6-yl)pyrimidin-4-ol]
EC50 [1]: ≤ 100 nM

Oc1nc(-c2cn3ccnc3c(Cc3ccccc3)n2)ncc1F [Compound I-2, 2-(8-Benzylimidazo[1,2-a]pyrazin-6-yl)-5-fluoropyrimidin-4-ol]
EC50 [1]: 100 to 1000 nM

Oc1nc(-c2cn3ccnc3c(Cc3cccc(F)c3F)n2)ncc1F [Compound I-4, 2-(8-(2,3-Difluorobenzyl)imidazo[1,2-a]pyrazin-6-yl)-5-fluoropyrimidin-4-ol]
EC50 [1]: ≤ 100 nM
maximal reduction of MAP from baseline (ΔBMAP) ([2]; formulated in PEG400, 10 mg/kg): 20 mm Hg
time after dosing of maximal/peak ΔBMAP ([2]; formulated in PEG400, 10 mg/kg): 50 min

Cc1cc(F)c(Cc2nc(-c3nccc(O)n3)cn3ccnc23)cc1F [Compound I-15, 2-(8-(2,5-difluoro-4-methylbenzyl)imidazo[1,2-a]pyrazin-6-yl)pyrimidin-4-ol]
EC50 [1]: 100 to 1000 nM

Oc1nc(-c2cn3ccnc3c(Cc3cc(F)ccc3F)n2)ncc1F [Compound I-20, 5-fluoro-2-(8-(2,5-difluorobenzyl)imidazo[1,2-a]pyrazin-6-yl)pyrimidin-4-ol]
EC50 [1]: ≤ 100 nM
Peak ΔVMAP (mm Hg) ([2]; 1 mg/kg single oral dose): −14.3 mm Hg
Time at Peak ([2]; 1 mg/kg single oral dose): 20 min
Peak ΔVMAP (mm Hg) ([2]; 3 mg/kg single oral dose): −19.2 mm Hg
Time at Peak ([2]; 3 mg/kg single oral dose): 20 min
Peak ΔVMAP (mm Hg) ([2]; 10 mg/kg single oral dose): −20.2 mm Hg
Time at Peak ([2]; 10 mg/kg single oral dose): 30 min
Peak ΔVMAP (mm Hg) ([2]; 30 mg/kg single oral dose): −38.1 mm Hg
Time at Peak ([2]; 30 mg/kg single oral dose): 30 min
peak ΔBMAP ([2]; formulated in PEG400, 10 mg/kg): −26 mm Hg
time after dosing of maximal/peak ΔBMAP ([2]; formulated in PEG400, 10 mg/kg): 42 min
